We go through 41 compounds from patent publication US8748462B2, “Spirocyclic GPR40 modulators” (Amgen Inc., priority 2008, dated 2014).

In assay [1] the target is T1, human GPR40 (Homo sapiens, UniProt O14842).
T1 construct: expressed in transfected cells; host or cells: CHO cells stably transfected with GPR40 and Aequorin
The assay can be described thus: Cell-based aequorin assay. The note with it: CHO cells stably transfected with GPR40 and aequorin; 0.01% HSA. The procedure:
Cell-based aequorin assays were employed to characterize the modulatory activity of compounds on the GPR40 signaling pathway. In an exemplary assay, CHO cells were stably transfected with both GPR40 and Aequorin (Euroscreen). Cells were detached from the tissue culture dish with 2 mL of trypsin (0.25% (w/v)). Trypsinization was halted with 28 mL of Hanks Buffered Salt Solution containing 20 mM Hepes (H/HBSS) and 0.01% fatty acid-free human serum albumin (HSA). Coelantrazine is added to 1 ug/mL, and the cells were incubated for 2 hours at room temperature. Compounds were dissolved in DMSO for preparation of 10 mM stock solutions. Compounds were diluted in H/HBSS containing 0.01% HSA. Serial dilutions of the test compounds were prepared to determine dose response.
Aequorin luminescence measurements were made using an EG&G Berthold 96-well luminometer, and the response was measured over a 20 second interval after cells and compounds were mixed. The maximum relative light units was plotted to determine dose response. The EC50 (effective concentration to reach 50% maximal response) was determined from the dose response plot.

Assay [2] deals with T1, human GPR40. The assay can be described thus: Inositol phosphate accumulation assay. The assay is classed as cell-based. The note with it: A9 cell line stably transfected with GPR40; 1 hour at 37° C.; read-out: IP3 EC50. The procedure: An A9 cell line stably transfected with GPR40 (A9_GPR40) was used in IP accumulation assays. A9_GPR40 cells were plated in 96-well plates containing 20,000 cells/well in DMEM containing 10% FBS. After the cells attached to the well surface, the media was replaced with inositol free DMEM containing 10% dialyzed FBS and 1 μCi, mL ^3H-inositol and incubated for 16 hours. Compounds were diluted in HBSS/10 mM LiCl containing a desired amount of HSA and added directly to cells. Following 1 hour incubation at 37° C., the media was replaced with 100 μL of 20 mM formic acid to quench the reaction. 50 μL of the extract was then added to 100 μL of SPA beads, incubated overnight, and measured on a TopCount the following day.

T1 sequence (O14842 whole entry): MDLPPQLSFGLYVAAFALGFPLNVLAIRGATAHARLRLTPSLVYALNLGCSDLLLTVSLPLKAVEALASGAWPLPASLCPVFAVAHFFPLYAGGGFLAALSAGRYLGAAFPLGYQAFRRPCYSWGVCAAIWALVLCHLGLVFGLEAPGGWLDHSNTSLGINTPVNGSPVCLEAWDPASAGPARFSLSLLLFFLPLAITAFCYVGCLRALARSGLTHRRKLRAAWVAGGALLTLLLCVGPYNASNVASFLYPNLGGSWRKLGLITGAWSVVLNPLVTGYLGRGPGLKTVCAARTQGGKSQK

Regarding `C=CC(C)(C)[C@H]1c2cc(COc3ccc4c(c3)[C@]3(CC4)C[C@H]3C(=O)O)ccc2-c2c(F)ccc(OC)c21` (racemic) [Example 21], the EC50 – broadly, the concentration at which the effect is half-maximal – at human GPR40 [1] is 100 to 1000 nM.
On to `CO[C@@H](c1cc(COc2ccc3c(c2)[C@]2(CCC3)C[C@H]2C(=O)O)ccc1Br)C(C)(C)C` (racemic) [Example 132], for which the EC50 on human GPR40 [1] was 1000 to 10000 nM.
Regarding `COc1cccc(-c2ccc(COc3ccc4c(c3)[C@]3(CCC4)C[C@H]3C(=O)O)cc2[C@H](OC)C(C)(C)C)c1F` (racemic) [Example 134], the EC50 on human GPR40 [1] fell in the range of 100 to 1000 nM; at human GPR40 [2], 10 to 100 nM.
For `CO[C@@H](c1cc(COc2ccc3c(c2)[C@]2(CCC3)C[C@H]2C(=O)O)ccc1-c1cncs1)C(C)(C)C` (racemic) [Example 135], the EC50 on human GPR40 [1] was 1000 to 10000 nM.
Still for that read-out and setting: under `CO[C@@H](c1cc(COc2ccc3c(c2)[C@]2(CCC3)C[C@H]2C(=O)O)ccc1-c1ccnc(C(F)(F)F)c1)C(C)(C)C` (racemic) [Example 136] stands 1000 to 10000 nM.
As for `CO[C@@H](c1cc(COc2ccc3c(c2)[C@]2(CCC3)C[C@H]2C(=O)O)ccc1-c1cccc(Cl)c1)C(C)(C)C` (racemic) [Example 137], the EC50 on human GPR40 [1] lay in the range of 100 to 1000 nM; at human GPR40 [2], 10 to 100 nM.
In turn, `CO[C@@H](c1cc(COc2ccc3c(c2)[C@]2(CCC3)C[C@H]2C(=O)O)ccc1-c1cncc(F)c1)C(C)(C)C` (racemic) [Example 138] came in with an EC50 on human GPR40 [1] of 1000 to 10000 nM.
In turn, `COc1ccc(F)c(-c2ccc(COc3ccc4c(c3)[C@@]3(CC4)C[C@@H]3C(=O)O)cc2[C@H]2CCCC2(C)C)c1` (single isomer, unassigned) [Example 10] yielded an EC50 at human GPR40 [1] above 10000 nM.
The same measure, in the same setting: under `C=CC(C)(C)[C@@H]1c2cc(COc3ccc4c(c3)[C@]3(CC4)C[C@H]3C(=O)O)ccc2-c2c(F)ccc(OC)c21` (single isomer, unassigned) [Example 23] stands 1000 to 10000 nM.
At human GPR40 [1], `COc1ccc(F)c(-c2ccc(COc3cc(F)c4c(c3F)[C@@]3(CC4)C[C@@H]3C(=O)O)cc2[C@H]2CCCC2(C)C)c1` (single isomer, unassigned) [Example 34] came in with an EC50 of 1000 to 10000 nM.
On the same count and under the same terms, under `COc1ccc(F)c(-c2ccc(COc3cc(F)c4c(c3F)[C@]3(CC4)C[C@@H]3C(=O)O)cc2[C@H]2CCCC2(C)C)c1` (single isomer, unassigned) [Example 35] stands above 10000 nM.
With `COc1ccc(F)c(-c2ccc(COc3cc(F)c4c(c3F)[C@@]3(CC4)C[C@H]3C(=O)O)cc2[C@H]2CCCC2(C)C)c1` (single isomer, unassigned) [Example 36], the EC50 on human GPR40 [1] is above 10000 nM.
On to `COc1ccc(F)c(-c2ccc(COc3cc(F)c4c(c3F)[C@]3(CC4)C[C@H]3C(=O)O)cc2[C@@H](OC)C(C)(C)C)c1` (single isomer, unassigned) [Example 37], for which the EC50 at human GPR40 [1] fell in the range of 10 to 100 nM.
For `COc1ccc(F)c(-c2ccc(COc3cc(F)c4c(c3F)[C@@]3(CC4)C[C@@H]3C(=O)O)cc2[C@@H](OC)C(C)(C)C)c1` (single isomer, unassigned) [Example 38], the concentration for a half-maximal effect (EC50) at human GPR40 [1] was in the range of 1000 to 10000 nM.
`COc1ccc(F)c(-c2ccc(COc3cc(F)c4c(c3F)[C@]3(CC4)C[C@@H]3C(=O)O)cc2[C@@H](OC)C(C)(C)C)c1` (single isomer, unassigned) [Example 39] gave an EC50 on human GPR40 [1] of 1000 to 10000 nM.
On human GPR40 [1], `COc1ccc(F)c(-c2ccc(COc3cc(F)c4c(c3F)[C@@]3(CC4)C[C@H]3C(=O)O)cc2[C@@H](OC)C(C)(C)C)c1` (single isomer, unassigned) [Example 40] returned an EC50 of 1000 to 10000 nM.
For `COc1cc(-c2ccc(COc3cc(F)c4c(c3F)[C@]3(CC4)C[C@H]3C(=O)O)cc2[C@@H]2CCCC2(C)C)c(F)cn1` (single isomer, unassigned) [Example 42], the EC50 at human GPR40 [1] lay in the range of 1000 to 10000 nM.
The compound `COc1cc(-c2cc(F)c(COc3ccc4c(c3)[C@]3(CCC4)C[C@H]3C(=O)O)cc2[C@H]2CCCC2(C)C)c(F)cn1` (single isomer, unassigned) [Example 43] gave an EC50 on human GPR40 [1] of 10 to 100 nM.
On human GPR40 [1], `COc1ccc(COc2ccc3c(c2)[C@]2(CCC3)C[C@H]2C(=O)O)cc1[C@@H]1CCCC1(C)C` (single isomer, unassigned) [Example 128] registered a half-maximal effective concentration (EC50) of 1000 to 10000 nM.
The compound `COc1ccc(F)c(-c2ccc(COc3ccc4c(c3)[C@@]3(CC4)[C@H](C(=O)O)[C@@H]3C)cc2[C@@H]2CCCC2(C)C)c1` (single isomer, unassigned) [Example 140] registered an EC50 on human GPR40 [1] of 100 to 1000 nM.
In turn, `COc1ccc(F)c(-c2ccc(COc3ccc4c(c3)[C@]3(CC4)CC[C@@H]3C(=O)O)cc2[C@@H](OC)C(C)(C)C)c1` (single isomer, unassigned) [Example 145] showed an EC50 on human GPR40 [1] of 1000 to 10000 nM.
For `COc1ccc(F)c(-c2ccc(COc3ccc4c(c3)[C@]3(CC4)CC[C@@H]3C(=O)O)cc2[C@@H]2CCCC2(C)C)c1` (single isomer, unassigned) [Example 146], the EC50 at human GPR40 [1] fell in the range of 100 to 1000 nM.
Turning to `COc1ccc(F)c(-c2ccc(COc3ccc4c(c3)C3(CC4)CCC3C(=O)O)cc2C(OC)C(C)(C)C)c1` (single isomer, unassigned) [Example 147], the EC50 on human GPR40 [1] is 100 to 1000 nM.
Turning to `COc1ccc(F)c(-c2ccc(COc3ccc4c(c3)[C@]3(CCC4)CC[C@@H]3C(=O)O)cc2[C@@H](OC)C(C)(C)C)c1` (single isomer, unassigned) [Example 152], the EC50 at human GPR40 [1] lay within 1000 to 10000 nM.
Turning to `COc1cc(-c2ccc(COc3ccc4c(c3)[C@]3(CCC4)CC[C@@H]3C(=O)O)cc2[C@@H]2CCCC2(C)C)c(F)cn1` (single isomer, unassigned) [Example 153], the EC50 on human GPR40 [1] fell in the range of 1000 to 10000 nM.
Still for that read-out and setting: then `COc1ccc(F)c(-c2ccc(COc3ccc4c(c3)C3(CCC4)CCC3C(=O)O)cc2C(OC)C(C)(C)C)c1` (single isomer, unassigned) [Example 157], with 1000 to 10000 nM; and `COc1ccc(Cl)c(-c2ccc(COc3ccc4c(c3F)[C@@]3(CC4)C[C@@H]3C(=O)O)cc2[C@@H]2CCCC2(C)C)n1` (stereo in doubt) [Example 126], with 1000 to 10000 nM; and `COc1ccc(F)c(-c2ccc(COc3ccc4c(c3)[C@@]3(CC4)C[C@@H]3C(=O)O)cc2C2=CCCC2(C)C)c1` [Example 2], with above 10000 nM.
In turn, `COc1ccc(F)c(-c2ccc(COc3ccc4c(c3)[C@]3(CC4)C[C@@H]3C(=O)O)cc2C2=CCCC2(C)C)c1` [Example 3] registered an EC50 at human GPR40 [1] above 10000 nM.
For `COc1ccc(F)c(-c2ccc(COc3ccc4c(c3)[C@@]3(CC4)C[C@H]3C(=O)O)cc2C2=CCCC2(C)C)c1` [Example 4], at human GPR40 [1], the EC50 lay in the range of 1000 to 10000 nM.
On to `COc1ccc(F)c(-c2cc(COc3ccc4c(c3)[C@]3(CC4)C[C@H]3C(=O)O)ccc2C(C)(C)C)c1` [Example 5], for which the EC50 on human GPR40 [1] is 1000 to 10000 nM.
`COc1ccc(F)c(-c2cc(COc3ccc4c(c3)[C@@]3(CC4)C[C@@H]3C(=O)O)ccc2C(C)(C)C)c1` [Example 6]: the EC50 at human GPR40 [1] was above 10000 nM.
Same read-out and setting: under `COc1ccc(F)c(-c2cc(COc3ccc4c(c3)[C@]3(CC4)C[C@@H]3C(=O)O)ccc2C(C)(C)C)c1` [Example 7] stands above 10000 nM; under `COc1ccc(F)c(-c2cc(COc3ccc4c(c3)[C@@]3(CC4)C[C@H]3C(=O)O)ccc2C(C)(C)C)c1` [Example 8], above 10000 nM; under `C=CC1(c2cc(COc3ccc4c(c3)[C@]3(CC4)C[C@H]3C(=O)O)ccc2-c2cc(OC)ncc2F)CCCC1` [Example 26], 1000 to 10000 nM.
On the same count and under the same terms, under `COCC1(c2cc(COc3ccc4c(c3)[C@]3(CC4)C[C@H]3C(=O)O)ccc2-c2cc(OC)ncc2F)CCCC1` [Example 27] stands 1000 to 10000 nM; under `COc1ccc(F)c(-c2ccc(COc3ccc4c(c3)[C@]3(CC4)C[C@H]3C(=O)O)cc2-c2nncn2C(C)C)c1` [Example 29], above 10000 nM; under `COc1ccc(F)c(-c2ccc(COc3ccc4c(c3)[C@@]3(CCC4)C[C@@H]3C(=O)O)cc2C2=CCCC2(C)C)c1` [Example 50], above 10000 nM.
Still for that read-out and setting: under `CC1(C)CCC(C)(C)c2cc(COc3ccc4c(c3)[C@]3(CC4)C[C@H]3C(=O)O)ccc21` [Example 104, (1R,2R)-6′-((5,5,8,8-tetramethyl-5,6,7,8-tetrahydro-2-naphthalenyl)methoxy)-2′,3′-dihydrospiro[cyclopropane-1,1′-indene]-2-carboxylic acid] stands above 10000 nM; under `C=CC(C)(C)c1cc(COc2ccc3c(c2)[C@]2(CC3)C[C@H]2C(=O)O)ccc1-c1cc(OC)ncc1F` [Example 123, (1R,2R)-6′-(4-(5-Fluoro-2-methoxypyridin-4-yl)-3-(2-methylbut-3-en-2-yl)benzyloxy)-2′,3′-dihydrospiro[cyclopropane-1,1′-indene]-2-carboxylic acid], 1000 to 10000 nM.
`O=C(O)[C@@H]1C[C@]12CCc1ccc(Oc3ccc(C(F)(F)F)c(Br)c3)cc12` [Example 124, (1R,2R)-6′-(3-Bromo-4-(trifluoromethyl)phenoxy)-2′,3′-dihydrospiro[cyclopropane-1,1′-indene]-2-carboxylic acid] had a 50% effective concentration (EC50) on human GPR40 [1] of 1000 to 10000 nM.
